Where two headings read alike, the source gives them in different places.
Experiments:
Format in all cases: physicochemical
[1] = Equilibrium solubility in simulated fluids and water at 37° C.; conditions: for pH (24 hr): dimesylate; for solubility at 24 h: above calibration range
Procedure: The solubility Compound A⋅2MSA, Patterns A, B and I, was measured in water, fasted state simulated gastric fluid (FaSSGF) and fasted state simulated intestinal fluid (FaSSIF) at 37° C. by slurrying in the respective media for 24 hours. 1.5 mL of the fluid was stirred at 37° C. About 5 mg of the specified solid was added to FaSSIF and a thin slurry was immediately formed. As a test, approximately 80 and 60 mg of Pattern A was added to 1.5 mL of water and FaSSGF, respectively without formation of a slurry. Therefore, about 10 mg of the desired Pattern was added to water and FaSSGF solutions. The samples were allowed to stir at 37° C. for 24 hrs. The stir bars were removed from the FaSSIF vials and the solids allowed to settle for 0.5 hours at 37° C. The supernatant/solutions were syringe filtered and recovered for analysis by HPLC as well as for pH measurement.

[2] = Kinetic solubility studies in FaSSIF and FeSSIF; conditions: 37° C.; for solubility thermodynamic at 1 day: thermodynamic from solid, read-out: Concentration
Procedure: The solubility of the dimesylate (Pattern B) and mono-HCl salts of Compound A was determined in FaSSIF (pH 6.5) at 37° C. after a slurry time of 5, 20 and 40 minutes. FaSSIF was warmed to 37° C. and added to a vial of ca. 9 mg of the salt to mark t=0. The mixture was kept stirring at 37° C. and a sample drawn with a syringe at t+5, 20 and 40 minutes. The samples were syringe filtered and the filtrate was diluted 2× to ensure no precipitation while waiting for HPLC analysis. The pH of the solution collected at 40 minutes was measured. The slurry was sampled again the following day and the supernatant from syringe filtration was analyzed directly by HPLC without dilution. The same experiment was run with FeSSIF (pH 5.0).

[3] = Dynamic Vapor Sorption (DVS)
Procedure: Dynamic Vapor Sorption (DVS) was done using a DVS Intrinsic 1. The sample is loaded into a sample pan and suspended from a microbalance. A typical sample mass for DVS measurement is 25 mg. Nitrogen gas bubbled through distilled water provides the desired relative humidity.
A typical measurement comprises the steps: • 1—Equilibrate at 50% RH • 2-50% to 2%. (50%, 40%, 30%, 20%, 10% and 2%) • a. Hold minimum of 5 mins and maximum of 240 minutes at each humidity. The pass criteria is less than 0.002% change • 3-2% to 95% (2%, 10%, 20%, 30%, 40%, 50%, 60%, 70%, 80%, 90%, 95%) • a. Hold minimum of 5 mins and maximum of 240 minutes at each humidity. The pass criteria is less than 0.002% change • 4-95% to 2% (95%, 80%, 70%, 60%, 50%, 40%, 30%, 20%, 10%, 2%) • a. Hold minimum of 5 mins and maximum of 240 minutes at each humidity. The pass criteria is less than 0.002% change • 5-2% to 50% (2%, 10%, 20%, 30%, 40%, 50%) • a. Hold minimum of 5 mins and maximum of 240 minutes at each humidity. The pass criteria is less than 0.002% change Dynamic Vapor Sorption Isotherm Plots of Solid Forms of Compound A⋅2MSA

[4] = Karl-Fischer titration for water determination; conditions: dimesylate
Procedure: Karl-Fischer titration for water determination was done using a Mettler Toledo C20S Coulometric KF Titrator equipped with a current generator cell with a diaphragm, and a doubleplatinum-pin electrode. Aquastar™ CombiCoulomat fritless reagent was used in both the anode and cathode compartments. Samples of approximately 0.03-0.10 g were dissolved in the anode compartment and titrated until the solution potential dropped below 100 mV. Hydranal 1 wt. % water standard is used for validation prior to sample analysis.

[5] = Storage at ambient conditions (XRPD); conditions: 21-22° C., 10-40% RH, a week
Procedure: Characterization after storage under ambient conditions: Pattern B was left at ambient conditions (21-22° C., 10-40% RH) for a week then characterized by)(RFD, TGA/DSC, and water content measured by Karl-Fischer titration. […] The water content was confirmed by KF titration which yielded a value of 4.20 wt. %.
Compound A⋅2MSA (Pattern A, 0.2622 g) was added to a 20 mL vial with a stir bar. Fifteen volumes (3.93 mL) of EtOH was added and the slurry was stirred overnight (˜20 hours). The slurry was sampled to confirm the correct pattern was generated, then the solids were collected by filtration. The resultant yellow solid was dried in a vacuum oven at 50° C. under dynamic vacuum for 2 hours, then under static vacuum overnight (˜16 hours) to yield 0.2015 g (77% yield). The in-situ sample drawn was dried for 3 hours then the solid was used for characterization by solution ^1H-NMR spectroscopy and simultaneous TGA/DSC. The bulk was dried overnight and used for stand-alone DSC, and thermal treatment.
Compound A⋅2MSA (Pattern A) was slurried in EtOH overnight at room temperature (ca. 16 hours). […] The bulk was dried in a vacuum oven at 50° C. under dynamic vacuum for 4.5 hours. The dried solids were removed from the oven and a “dry” XRPD analysis was collected.
Compound A⋅2MSA (Pattern A, 0.2659 g) was added to a 20 mL vial with a stir bar. Twenty-five volumes (6.65 mL) of ACN was added and the slurry was stirred overnight (˜20 hours). The slurry was sampled to confirm the correct pattern was generated, then the solids were collected by filtration. The resultant yellow solid was dried in a vacuum oven at 50° C. under dynamic vacuum for 2 hours, then under static vacuum overnight (˜16 hours) to yield 0.2255 g (85% yield). The sample drawn was dried for 3 hours then the solid was used for characterization by solution ^1H-NMR spectroscopy and simultaneous TGA/DSC. The bulk was dried overnight and used for stand-alone DSC.

comments ([1]; FaSSGF (pH 1.70), 24 hrs): dissolved | pH (24 hr) ([1]; FaSSGF (pH 1.70)): 1.80 | solubility at 24 h ([1]; FaSSGF, 37 °C, pH 1.7, fassgf or other biorelevant, thermodynamic from solid, FaSSGF (pH 1.70), 24 hrs, mg of Compound A (free base), read-out: Concentration): > 6570 µg/mL | comments ([1]; FaSSIF (pH 6.48), 24 hrs): disproportionated | pH (24 hr) ([1]; FaSSIF (pH 6.48)): 6.02 | solubility thermodynamic at 24 h ([1]; FaSSIF, 37 °C, pH 6.48, fassif, thermodynamic from solid, FaSSIF (pH 6.48), 24 hrs, mg of Compound A (free base), read-out: Concentration): 11 µg/mL | solubility at 24 h ([1]; water, 37 °C, water, thermodynamic from solid, water, 24 hrs, mg of Compound A (free base), read-out: Concentration): > 6250 µg/mL | comments ([1]; water, 24 hrs): dissolved | pH (24 hr) ([1]; water): 3.08 | pH of the solution collected at 40 minutes ([2]; FaSSIF (pH 6.5)): 6.22 | Concentration ([2]; FaSSIF (pH 6.5), 5 min): 13 µg/mL | Concentration ([2]; FaSSIF (pH 6.5), 20 min): 15 µg/mL | Concentration ([2]; FaSSIF (pH 6.5), 40 min): 13 µg/mL | pH of the solution collected at 40 minutes ([2]; FeSSIF (pH 5.0)): 4.94 | Concentration ([2]; FeSSIF (pH 5.0), 5 min): 559 µg/mL | Concentration ([2]; FeSSIF (pH 5.0), 20 min): 565 µg/mL | Concentration ([2]; FeSSIF (pH 5.0), 40 min): 559 µg/mL | solubility thermodynamic at 1 day ([2]; FaSSIF (pH 6.5)): 8 µg/mL | solubility thermodynamic at 1 day ([2]; FeSSIF (pH 5.0)): 502 µg/mL | XRPD form after the DVS experiment ([3]; 2-95% RH, dimesylate): no change in form | reversible water uptake (DVS) ([3]; between 2% and 95% Relative Humidity (RH), dimesylate): 3.2 % w/w | total mass difference (DVS) ([3]; over the 2-95% RH range): 3.2 wt. % | mass change (DVS) ([3]; range of 10-80% RH): 1.3 wt. % | Water Content [4]: 4.2% w/w | XRPD pattern after storage at ambient conditions [5]: identical to Pattern B
Compound: CS(=O)(=O)O.CS(=O)(=O)O.N#Cc1cccc(-c2ccc3ncc(-c4cc(F)cc(F)c4)c(N4CCC(N)CC4)c3c2)c1O [Pattern B, 3-(4-(4-aminopiperidin-1-yl)-3-(3,5-difluorophenyl)quinolin-6-yl)-2-hydroxybenzonitrile dimesylate]

Reference: patent US12617767B2, “Crystalline forms of somatostatin modulators” (Crinetics Pharmaceuticals, Inc., priority 2019, dated 2026)
